Measurements from ChEMBL document CHEMBL1201862, “PubChem BioAssay data set” (2004).
Calls of active or inactive are those of the source.

Tests used:
[1] = target: FAD-linked sulfhydryl oxidase ALR (Homo sapiens, UniProt P55789); experiment: ALR-catalysed DTT oxidation blockers – biochemical, H2O2 detection, luminescence, cherry-pick, dose response (AID 493248)
[2] = target: Cytochrome P450 2C19 (Homo sapiens, UniProt P33261); experiment: Cytochrome panel assay with activity outcomes. Panel member name: p450-cyp2c19 Compounds with AC50 equal or less than 10 uM are considered active; format: functional
[3] = target: Cytochrome P450 2D6 (Homo sapiens, UniProt P10635);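 further: CYP2D6 member of a cytochrome P450 panel assay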
[4] = target: T1, Cytochrome P450 1A2 (Homo sapiens, UniProt P05177);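 further: PubChem cytochrome P450 panel assay, CYP1A2 panel member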
T1 sequence (P05177 whole entry): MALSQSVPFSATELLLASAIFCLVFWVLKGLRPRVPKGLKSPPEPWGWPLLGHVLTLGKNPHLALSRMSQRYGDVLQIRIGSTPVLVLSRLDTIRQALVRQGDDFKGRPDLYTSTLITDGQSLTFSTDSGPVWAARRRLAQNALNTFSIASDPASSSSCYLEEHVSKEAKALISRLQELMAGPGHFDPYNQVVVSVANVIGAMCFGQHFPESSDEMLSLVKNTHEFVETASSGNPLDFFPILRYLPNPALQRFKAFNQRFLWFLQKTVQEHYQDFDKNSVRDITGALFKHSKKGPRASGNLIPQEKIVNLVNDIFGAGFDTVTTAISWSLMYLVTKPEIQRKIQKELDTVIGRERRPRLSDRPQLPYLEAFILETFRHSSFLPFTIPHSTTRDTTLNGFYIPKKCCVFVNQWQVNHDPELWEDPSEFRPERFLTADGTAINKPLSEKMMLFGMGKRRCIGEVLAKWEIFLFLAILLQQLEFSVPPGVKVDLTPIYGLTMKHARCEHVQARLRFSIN

[5] = target: T2, RNA-binding protein pos-1 (Caenorhabditis elegans, UniProt G5EF15); experiment: disruptors of C. elegans POS-1 RNA interaction – biochemical, fluorescence polarization, dose response (AID 1964);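 further: purified POS-1 fused to maltose binding protein made in E. coli; potency of compounds blocking POS-1 binding to fluorescent RNA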
T2 sequence (G5EF15 whole entry): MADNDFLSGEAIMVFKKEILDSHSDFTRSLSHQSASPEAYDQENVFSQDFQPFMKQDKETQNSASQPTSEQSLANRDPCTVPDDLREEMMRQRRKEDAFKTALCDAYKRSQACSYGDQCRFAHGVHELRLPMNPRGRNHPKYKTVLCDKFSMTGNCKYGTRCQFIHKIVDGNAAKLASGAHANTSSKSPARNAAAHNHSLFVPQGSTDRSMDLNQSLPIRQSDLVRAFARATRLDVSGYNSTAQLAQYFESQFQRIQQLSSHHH

[6] = target: T3, Zinc finger protein mex-5 (Caenorhabditis elegans, UniProt Q9XUB2); experiment: potency of MEX-5 RNA-binding blockers – biochemical, C. elegans, fluorescence polarization, dose response (AID 1960)
T3 sequence (Q9XUB2 whole entry): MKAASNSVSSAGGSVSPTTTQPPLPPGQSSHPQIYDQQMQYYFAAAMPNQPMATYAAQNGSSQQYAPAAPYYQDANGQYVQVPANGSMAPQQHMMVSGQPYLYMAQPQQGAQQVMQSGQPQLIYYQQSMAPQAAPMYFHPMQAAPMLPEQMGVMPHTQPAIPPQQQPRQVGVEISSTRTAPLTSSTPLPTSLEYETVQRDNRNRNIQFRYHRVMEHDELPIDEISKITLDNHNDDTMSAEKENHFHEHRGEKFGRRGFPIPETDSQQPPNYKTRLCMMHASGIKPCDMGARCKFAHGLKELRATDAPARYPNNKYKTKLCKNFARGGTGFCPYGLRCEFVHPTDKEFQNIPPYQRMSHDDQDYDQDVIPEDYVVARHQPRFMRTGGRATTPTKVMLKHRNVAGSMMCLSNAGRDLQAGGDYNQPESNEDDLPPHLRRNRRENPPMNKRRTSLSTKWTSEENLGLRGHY

[7] = target: T4, Corticotropin-releasing factor receptor 2/Corticotropin-releasing factor-binding protein (Homo sapiens, UniProt P24387+Q13324); experiment: activators of CRF receptor 2 with binding protein – uHTS hits, confirmation (AID 602473); format: functional; conditions: read-out: EC50_Mean
T4 sequence (Q13324 whole entry): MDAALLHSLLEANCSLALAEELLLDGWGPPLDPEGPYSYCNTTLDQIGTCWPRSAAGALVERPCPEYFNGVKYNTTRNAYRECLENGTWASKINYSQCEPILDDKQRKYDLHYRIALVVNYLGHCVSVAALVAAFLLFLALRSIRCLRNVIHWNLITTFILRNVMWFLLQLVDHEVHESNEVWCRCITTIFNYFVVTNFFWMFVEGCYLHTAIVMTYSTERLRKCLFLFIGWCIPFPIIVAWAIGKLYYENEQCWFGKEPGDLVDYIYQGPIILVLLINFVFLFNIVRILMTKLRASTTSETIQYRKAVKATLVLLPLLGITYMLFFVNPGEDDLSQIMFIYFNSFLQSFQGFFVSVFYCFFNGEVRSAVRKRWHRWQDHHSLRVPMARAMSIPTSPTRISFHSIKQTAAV
T4 sequence (P24387 whole entry): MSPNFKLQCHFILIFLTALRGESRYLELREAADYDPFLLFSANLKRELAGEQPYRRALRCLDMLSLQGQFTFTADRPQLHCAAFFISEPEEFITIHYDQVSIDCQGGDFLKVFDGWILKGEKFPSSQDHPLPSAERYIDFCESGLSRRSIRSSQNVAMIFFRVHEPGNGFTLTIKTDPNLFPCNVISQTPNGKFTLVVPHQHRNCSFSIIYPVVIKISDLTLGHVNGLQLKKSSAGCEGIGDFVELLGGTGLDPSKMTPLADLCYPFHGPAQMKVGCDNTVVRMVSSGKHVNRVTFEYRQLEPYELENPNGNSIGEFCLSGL

[8] = target: Cytochrome P450 2C9 (Homo sapiens, UniProt P11712)
[9] = test system: Streptococcus sp. 'group A'; experiment: Streptococcus pyogenes SK(-)GAS viability under kanamycin – luminescence, BacTiterGlo, confirmation, counter-screen for streptokinase expression inhibitor project, dose response (AID 1900); format: functional, organism-based
[10] = test system: Streptococcus; experiment: GAS UMAA2166 growth inhibition – luminescence, BacTiterGlo, counter-screen for streptokinase expression inhibitor project, dose response (AID 1915); format: functional, organism-based;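 further: potency for reduction of bacterial viability or growth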
[11] = test system: INS1; experiment: INS-1E survival protection against cytokine death – cell-based, luminescence, retest, dose response (AID 449756); format: functional; conditions: Rattus norvegicus;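 further: cell death triggered by IL-1 beta plus TNF-alpha plus IFN-gamma mixture; protective hits raise ATP signal compared with cytokine alone wells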
[12] = microbe, parasite or virus in culture; format: functional; conditions: Mycobacterium tuberculosis
[13] = Luminescence Cell-Based Dose Retest to Confirm Inhibitors of Cancer Stem Cells. [Related pubchem assays (depositor defined):AID2717, AID2721]; format: functional; conditions: Homo sapiens

FAD-linked sulfhydryl oxidase ALR, sequence (P55789 whole entry): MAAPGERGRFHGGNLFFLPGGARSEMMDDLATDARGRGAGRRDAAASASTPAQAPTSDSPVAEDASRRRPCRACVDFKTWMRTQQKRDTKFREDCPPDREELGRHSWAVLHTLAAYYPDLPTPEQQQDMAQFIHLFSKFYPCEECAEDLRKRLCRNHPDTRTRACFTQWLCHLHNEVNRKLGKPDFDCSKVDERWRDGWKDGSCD
Cytochrome P450 2C19, sequence (P33261 whole entry): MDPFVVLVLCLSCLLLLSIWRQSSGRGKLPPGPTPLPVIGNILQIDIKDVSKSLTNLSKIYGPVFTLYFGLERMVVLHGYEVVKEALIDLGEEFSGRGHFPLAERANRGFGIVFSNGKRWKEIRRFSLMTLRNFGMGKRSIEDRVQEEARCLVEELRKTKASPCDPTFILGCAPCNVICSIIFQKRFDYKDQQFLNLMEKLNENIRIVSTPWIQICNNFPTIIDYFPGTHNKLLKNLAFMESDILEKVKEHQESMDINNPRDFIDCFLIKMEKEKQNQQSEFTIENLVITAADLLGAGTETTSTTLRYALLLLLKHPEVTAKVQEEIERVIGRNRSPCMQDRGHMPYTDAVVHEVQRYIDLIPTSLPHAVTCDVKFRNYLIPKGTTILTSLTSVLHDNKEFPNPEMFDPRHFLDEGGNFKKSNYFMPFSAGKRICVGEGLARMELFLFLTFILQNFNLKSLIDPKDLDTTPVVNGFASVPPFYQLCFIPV
Cytochrome P450 2C9, sequence (P11712 whole entry): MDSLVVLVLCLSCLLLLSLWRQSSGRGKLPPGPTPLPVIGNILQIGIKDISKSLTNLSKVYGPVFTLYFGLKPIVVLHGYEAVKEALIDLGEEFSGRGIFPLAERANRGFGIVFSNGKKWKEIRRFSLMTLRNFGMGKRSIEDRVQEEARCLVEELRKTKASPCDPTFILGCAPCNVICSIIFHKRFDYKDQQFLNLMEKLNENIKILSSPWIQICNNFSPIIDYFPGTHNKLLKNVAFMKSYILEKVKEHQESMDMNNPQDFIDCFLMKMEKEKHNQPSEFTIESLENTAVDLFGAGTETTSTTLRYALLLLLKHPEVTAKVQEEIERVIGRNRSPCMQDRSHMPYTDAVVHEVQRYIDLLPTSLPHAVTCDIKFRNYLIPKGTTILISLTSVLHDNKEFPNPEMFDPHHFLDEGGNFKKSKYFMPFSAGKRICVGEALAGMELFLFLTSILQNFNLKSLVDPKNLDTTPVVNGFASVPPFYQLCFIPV
Cytochrome P450 2D6, sequence (P10635 whole entry): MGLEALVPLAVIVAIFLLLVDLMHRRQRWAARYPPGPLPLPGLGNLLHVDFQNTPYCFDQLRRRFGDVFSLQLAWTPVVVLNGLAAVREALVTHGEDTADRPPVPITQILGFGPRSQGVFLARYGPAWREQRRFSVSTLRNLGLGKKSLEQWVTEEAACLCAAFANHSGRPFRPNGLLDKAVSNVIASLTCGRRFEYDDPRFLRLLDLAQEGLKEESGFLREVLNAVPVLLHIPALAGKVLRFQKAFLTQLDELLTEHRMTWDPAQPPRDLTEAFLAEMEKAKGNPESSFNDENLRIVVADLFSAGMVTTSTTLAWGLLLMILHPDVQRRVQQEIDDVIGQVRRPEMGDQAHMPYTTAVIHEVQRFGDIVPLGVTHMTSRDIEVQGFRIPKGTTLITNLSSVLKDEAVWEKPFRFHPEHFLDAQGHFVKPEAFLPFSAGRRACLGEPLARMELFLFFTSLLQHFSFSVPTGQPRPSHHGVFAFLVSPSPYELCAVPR

Nc1[nH]c(N=NC(=O)c2ccc(F)cc2)c2ccccc12
AC50 [1]: 0.24 µM (active)

COc1ccc(-c2nc3cnc(N4CCNCC4)nc3n(Cc3cccc(OC)c3)c2=O)cc1
AC50 ([2]; read-out: AC50): 39.8 µM (inconclusive)
AC50 [3]: 39.8 µM (inconclusive)
AC50 [4]: 31.6 µM (inconclusive)

COc1ccccc1NC(=O)/C(C#N)=C/c1cc([N+](=O)[O-])ccc1N1CCCC1
EC50 [5]: 7.27 µM (inconclusive)
EC50 [6]: 4.59 µM (inconclusive)
EC50 [7]: 7.66 µM (active)

Nc1c(-c2ccccc2)cnn1-c1cccc([N+](=O)[O-])c1
AC50 [1]: 0.125 µM (active)
AC50 [8]: 28.2 µM (inconclusive)

C[C@@H]1Cc2c(O)c(O)cc(O)c2C(=O)O1
EC50 [5]: 104 µM (active)
EC50 [6]: 13.5 µM (active)

Cc1cc(C)n(-c2nc(NC(C)(C)C)nc(NC(C)(C)C)n2)n1
EC50 [9]: 0.694 µM (active)
EC50 [10]: 1.72 µM (active)
AC50 [2]: inconclusive
AC50 [11]: 3.14 µM (active)
AC50 [8]: 8.91 µM (inconclusive)

CCN(CCNC(=O)C1CC(=O)N(CCc2ccccc2)C1)c1ccccc1 (stereo not drawn)
AC50 [1]: 0.288 µM (active)

Cc1ccc(S(=O)(=O)N2CCC(=O)N(C(COCc3ccc(C(F)(F)F)cc3)Cc3ccccc3)CC2)cc1 (stereo not drawn)
EC50 [7]: 4.81 µM (active)

CC(NC(=O)CCl)c1ccc(Cl)c(Cl)c1 (stereo not drawn)
CC50 [12]: 8.91 µM (active)

COC(=O)c1ccc(-n2c(CCC(=O)O)ccc2-c2ccc(C)cc2)cc1
EC50 [5]: > 300 µM (not active)
EC50 [6]: > 300 µM (not active)

O=C(CCl)Nc1cccn2ncnc12
CC50 [12]: 32.6 µM (active)

CC1=C/C(=C(/c2ccc(O)c(C)c2)c2ccccc2C(=O)O)C=CC1=O
AC50 [4]: 3.16 µM (inconclusive)

CNCC[C@H](Oc1ccccc1C)c1ccccc1
AC50 [4]: 15.8 µM (inconclusive)

COCCn1c(=O)c(C)nc2cnc(Oc3ccc(OC)cc3)nc21
AC50 ([2]; read-out: AC50): 39.8 µM (inconclusive)
AC50 [8]: 20 µM (inconclusive)

O=C1CS[C@@H](c2ccccc2Cl)c2cc(Cl)ccc2N1
AC50 [4]: 39.8 µM (inconclusive)

O=C(CSc1nc(O)c2c(C(F)(F)F)cc(-c3cccs3)nc2n1)Nc1c(F)c(F)c(F)c(F)c1F
AC50 [13]: 1.04 µM (active)

COc1cc(OC)cc(C(=O)N2CCCC(Nc3ccc(F)cc3)C2)c1 (stereo not drawn)
AC50 [1]: 1.97 µM (active)

Cc1ccc(S(=O)(=O)Nc2ccccc2F)cc1C(=O)NNC(=O)c1ccccc1O
EC50 [5]: 149 µM (inconclusive)
EC50 [6]: 1.75 µM (inconclusive)

CC1=NN(c2nc(-c3ccc(Cl)cc3)cs2)C(=O)C1
AC50 [13]: 5.37 µM (active)

C[C@@H](C(=O)NCc1ccc(S(C)(=O)=O)cc1)[C@H]1C[C@]1(C)[C@H](NC(=O)OCc1ccccc1)c1ccccc1
AC50 [4]: 12.6 µM (inconclusive)

COc1c(Cl)cc(Cl)cc1CNCCNCCO
AC50 [4]: 28.2 µM (inconclusive)
AC50 [8]: 22.4 µM (inconclusive)

Sc1nc(-c2ccccc2)c[nH]1
AC50 [1]: 0.904 µM (active)

Cc1noc(C)c1S(=O)(=O)NCCN1CCN(c2ccccc2)CC1
AC50 [1]: 3.33 µM (active)

Nc1nnc(C(=O)c2ccccc2N)s1
EC50 [5]: 14.7 µM (active)
EC50 [6]: 3.86 µM (active)

Cc1c(NC(=O)c2ccc([N+](=O)[O-])o2)cccc1-c1nc2ncccc2o1
CC50 [12]: > 40 µM (active)
AC50 [13]: 4 µM (active)

CCc1ccccc1N1C(=O)c2cccc3c(N4CCOCC4)c([N+](=O)[O-])cc(c23)C1=O
AC50 [4]: 10 µM (inconclusive)

CCn1cc(C=C2C(=O)N(C)C(=O)N(C)C2=O)c2ccccc21
EC50 [5]: > 300 µM (not active)
EC50 [6]: > 300 µM (inconclusive)

C=CCN1C(=O)NC(=O)/C(=C/c2cc3c4c(c2)CCCN4CCC3)C1=O
AC50 [1]: 2.31 µM (active)

CNc1nc(NCCOC23CC4CC(CC(C4)C2)C3)nc(OCC(F)(F)F)n1
AC50 [4]: 12.6 µM (inconclusive)
AC50 [8]: 15.8 µM (inconclusive)

O=[N+]([O-])c1cccc(-c2nnc(S)n2-c2ccc(Br)cc2)c1
AC50 [1]: 3.63 µM (active)

Cc1cc(=O)oc(C)c1C(=O)Nc1ccc2ncccc2c1
EC50 [7]: 24.2 µM (active)

O=C(CSc1nc2ccccc2[nH]1)NCCN1CCCCC1
AC50 ([2]; read-out: AC50): 22.4 µM (inconclusive)
AC50 [3]: 1.78 µM (inconclusive)
AC50 [4]: 0.316 µM (inconclusive)

CCCn1c(NCc2ccc3c(c2)OCO3)nc2ccccc21
AC50 [1]: 18.9 µM (active)

Cc1ccc(/C=C2\C(=O)Nc3ccccc32)o1
CC50 [12]: > 40 µM (active)

COc1ccc(NC(=O)N2CCC3(CC2)CCN(C(=O)c2cnccn2)CC3)cc1
AC50 [4]: 10 µM (inconclusive)
AC50 [8]: 31.6 µM (inconclusive)

Cc1cc(C)cc(N(C(=O)C2CCCC2)C2C=CS(=O)(=O)C2)c1 (stereo not drawn)
AC50 ([2]; read-out: AC50): 17.8 µM (inconclusive)
AC50 [8]: 35.5 µM (inconclusive)

CN(C)c1ccc2c3c(ccc(N(C)C)c13)C(=O)OC2
AC50 [1]: 8.4 µM (active)

CCOc1nn(-c2ccc(Cl)cc2)c(O)c1/C=N/c1ccc(O)cc1
AC50 [4]: 3.55 µM (inconclusive)
AC50 [8]: 3.55 µM (inconclusive)

COc1ccccc1C1C(C(C)=O)=C(C)N=c2s/c(=C\c3cc(OC)c(OC)c(OC)c3)c(=O)n21 (stereo not drawn)
EC50 [5]: > 300 µM (not active)
EC50 [6]: > 300 µM (not active)
